Consider three molecules from ChEMBL document CHEMBL5678818, “Discovery of potent SOS1 inhibitors that block RAS activation via disruption of the RAS-SOS1 interaction” (Proc Natl Acad Sci U S A, 2019).

SMILES strings stand for the structures. Some results are limits rather than exact numbers.

One assay concerns the target GTPase KRas (Homo sapiens, UniProt P01116, G12C). As to the kind of experiment: Inhibition of N-terminal GST-tagged recombinant human KRAS G12C mutant (1 to 169 residues) expressed in Escherichia coli assessed as reduction in intrinsic GTP exchange preincubated for 10 mins with KRAS followed by SOS1 addition measured after 30 mins in presence of EDA-GTP-DY-647P1 by HTRF analysis. In general terms: TR-FRET usually uses a lanthanide donor and a delayed reading to cut background.

Assay [1] addresses Mitogen-activated protein kinase 14 (Homo sapiens) (UniProt Q16539). As to the kind of experiment: Inhibition of p38-alpha (unknown origin) assessed as residual activity at 1000 nM by KINOMEscan analysis relative to control.
Assay [2] has as its target T1, Myosin light chain kinase family member 4 (Homo sapiens) (UniProt Q86YV6).
T1 sequence (whole entry): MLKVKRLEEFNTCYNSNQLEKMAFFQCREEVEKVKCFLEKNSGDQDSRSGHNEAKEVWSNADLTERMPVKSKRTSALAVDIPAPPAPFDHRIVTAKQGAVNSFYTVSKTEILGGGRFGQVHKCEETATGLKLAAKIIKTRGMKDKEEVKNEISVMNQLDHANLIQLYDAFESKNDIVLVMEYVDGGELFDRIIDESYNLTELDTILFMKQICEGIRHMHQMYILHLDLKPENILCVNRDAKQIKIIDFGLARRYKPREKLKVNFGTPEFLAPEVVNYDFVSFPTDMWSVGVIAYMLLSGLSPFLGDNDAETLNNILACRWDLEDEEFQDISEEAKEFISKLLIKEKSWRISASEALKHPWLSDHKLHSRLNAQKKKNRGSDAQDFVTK
As to the kind of experiment: Inhibition of MYLK4 (unknown origin) assessed as residual activity at 1000 nM by KINOMEscan analysis relative to control.

Assay [3] addresses Leukocyte tyrosine kinase receptor (Homo sapiens) (UniProt P29376). As to the kind of experiment: Inhibition of LTK (unknown origin) assessed as residual activity at 1000 nM by KINOMEscan analysis relative to control.
The target of assay [4] is Macrophage colony-stimulating factor 1 receptor (Homo sapiens) (UniProt P07333). As to the kind of experiment: Inhibition of autoinhibited CSF1R (unknown origin) assessed as residual activity at 1000 nM by KINOMEscan analysis relative to control.
The target in assay [5] is Misshapen-like kinase 1 (Homo sapiens) (UniProt Q8N4C8). As to the kind of experiment: Inhibition of MINK (unknown origin) assessed as residual activity at 1000 nM by KINOMEscan analysis relative to control.
The target in assay [6] is Dual specificity protein kinase CLK3 (Homo sapiens) (UniProt P49761). As to the kind of experiment: Inhibition of CLK3 (unknown origin) assessed as residual activity at 1000 nM by KINOMEscan analysis relative to control.
Assay [7] has as its target Epithelial discoidin domain-containing receptor 1 (Homo sapiens) (UniProt Q08345). As to the kind of experiment: Inhibition of DDR1 (unknown origin) assessed as residual activity at 1000 nM by KINOMEscan analysis relative to control.
The target of assay [8] is Tyrosine-protein kinase ABL2 (Homo sapiens) (UniProt P42684). As to the kind of experiment: Inhibition of ABL2 (unknown origin) assessed as residual activity at 1000 nM by KINOMEscan analysis relative to control.
In assay [9] the target is Rho-associated protein kinase 2 (Homo sapiens) (UniProt O75116). As to the kind of experiment: Inhibition of ROCK2 (unknown origin) assessed as residual activity at 1000 nM by KINOMEscan analysis relative to control.
Assay [10] concerns the target Tyrosine-protein kinase Fes/Fps (Homo sapiens) (UniProt P07332). As to the kind of experiment: Inhibition of FES (unknown origin) assessed as residual activity at 1000 nM by KINOMEscan analysis relative to control.
Assay [11] deals with T2, Serine/threonine-protein kinase PknB (Mycobacterium tuberculosis) (UniProt P9WI81).
T2 sequence (whole entry): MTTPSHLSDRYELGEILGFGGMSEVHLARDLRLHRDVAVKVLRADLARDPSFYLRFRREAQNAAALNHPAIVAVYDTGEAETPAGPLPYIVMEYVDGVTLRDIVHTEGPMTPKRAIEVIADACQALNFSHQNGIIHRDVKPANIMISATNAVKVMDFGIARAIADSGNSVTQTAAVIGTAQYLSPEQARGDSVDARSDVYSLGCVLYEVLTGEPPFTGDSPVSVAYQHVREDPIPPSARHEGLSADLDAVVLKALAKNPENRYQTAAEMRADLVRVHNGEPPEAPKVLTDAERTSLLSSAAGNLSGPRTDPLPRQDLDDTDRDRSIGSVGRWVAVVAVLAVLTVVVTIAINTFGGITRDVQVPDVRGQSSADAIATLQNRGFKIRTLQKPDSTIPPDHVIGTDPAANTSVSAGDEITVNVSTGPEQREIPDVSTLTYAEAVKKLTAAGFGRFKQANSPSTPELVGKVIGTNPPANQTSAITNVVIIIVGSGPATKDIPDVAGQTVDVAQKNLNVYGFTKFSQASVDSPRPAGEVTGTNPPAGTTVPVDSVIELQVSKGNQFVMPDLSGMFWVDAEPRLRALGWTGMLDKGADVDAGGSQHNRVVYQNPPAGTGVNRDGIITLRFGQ
As to the kind of experiment: Inhibition of Mycobacterium tuberculosis PKNB assessed as residual activity at 1000 nM by KINOMEscan analysis relative to control.

Assay [12] deals with Dual specificity protein kinase CLK4 (Homo sapiens) (UniProt Q9HAZ1). As to the kind of experiment: Inhibition of CLK4 (unknown origin) assessed as residual activity at 1000 nM by KINOMEscan analysis relative to control.
Assay [13] deals with Tyrosine-protein kinase ABL1 (Homo sapiens), P00519 [F317L]. As to the kind of experiment: Inhibition of phosphorylated ABL1 F317L mutant (unknown origin) assessed as residual activity at 1000 nM by KINOMEscan analysis relative to control.
For assay [14], the target named is Calcium/calmodulin-dependent protein kinase type 1D (Homo sapiens) (UniProt Q8IU85). As to the kind of experiment: Inhibition of CAMK1D (unknown origin) assessed as residual activity at 1000 nM by KINOMEscan analysis relative to control.
Assay [15] has as its target NT-3 growth factor receptor (Homo sapiens) (UniProt Q16288). As to the kind of experiment: Inhibition of TRKC (unknown origin) assessed as residual activity at 1000 nM by KINOMEscan analysis relative to control.

As usually defined, the IC50 is the point on the concentration scale where inhibition reaches its midpoint. For `COc1cc2nc(C)nc(NC(C)c3ccc(-c4cnc5n4CCC5)s3)c2cc1OC` (configuration not stated), the half-inhibitory concentration (IC50) on GTPase KRas is > 20 µM.

For `COc1cc2ncnc(N[C@H](C)c3cccc4ccccc34)c2cc1OC`, the Activity in assay [1] was determined as 58%; in assay [2], 75%; in [3], 97%; in assay [4], 93%; in assay [5], 74%; in [6], 100%. The Activity was determined as 100% in assay [7]; 100% in assay [8]; 91% in [9]; 99% in assay [10]; 94% in assay [11]; 100% in assay [12]. Also, the Activity was determined as 89% in assay [13], 81% in assay [14] and 95% in [15]. The IC50 at GTPase KRas was > 20 µM.

In the case of `COc1cc2nc(C)nc(N[C@H](C)c3cccc(-c4cn[nH]c4)c3)c2cc1OC`, the Activity in [1] came to 98%; in [2], 92%; in assay [3] it was 100%; in [4] it was 97%; in assay [5] it was 100%; in [6], 81%. For the same molecule, the Activity in [7] was determined as 95%; in assay [8], 73%; in assay [9], 72%; in assay [10] it was 45%; in [11] it was 89%; in assay [12], 93%. In addition, the Activity in assay [13] was 92%; in assay [14], 68%; in assay [15], 88%.
